How the values were obtained:
[1] = target: Receptor-type tyrosine-protein phosphatase alpha (Homo sapiens) (UniProt P18433); assay: Selectivity against protein tyrosine phosphatase alpha
[2] = target: T1, M-phase inducer phosphatase 2 (Homo sapiens, UniProt P30305); assay: Inhibitory concentration to human cell division cycle 25B (Cdc25B)
T1 sequence (P30305 whole entry): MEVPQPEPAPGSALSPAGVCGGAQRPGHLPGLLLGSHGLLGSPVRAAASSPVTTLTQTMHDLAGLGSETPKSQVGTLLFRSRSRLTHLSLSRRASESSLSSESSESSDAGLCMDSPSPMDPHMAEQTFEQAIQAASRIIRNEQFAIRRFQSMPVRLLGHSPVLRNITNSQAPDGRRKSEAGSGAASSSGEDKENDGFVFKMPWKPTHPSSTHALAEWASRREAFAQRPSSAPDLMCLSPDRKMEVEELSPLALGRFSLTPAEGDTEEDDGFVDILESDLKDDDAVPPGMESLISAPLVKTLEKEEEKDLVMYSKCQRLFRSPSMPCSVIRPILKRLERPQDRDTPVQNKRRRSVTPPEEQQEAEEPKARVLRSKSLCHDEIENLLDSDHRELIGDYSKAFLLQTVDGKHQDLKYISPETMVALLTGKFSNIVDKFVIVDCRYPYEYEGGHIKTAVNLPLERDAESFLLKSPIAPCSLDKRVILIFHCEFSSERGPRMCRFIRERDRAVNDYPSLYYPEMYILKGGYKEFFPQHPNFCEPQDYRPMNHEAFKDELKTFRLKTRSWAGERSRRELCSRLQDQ

[3] = target: T2, Tyrosine-protein phosphatase non-receptor type 1 (Homo sapiens) (UniProt P18031); assay: Selectivity against protein tyrosine phosphatase 1B
T2 sequence (whole entry): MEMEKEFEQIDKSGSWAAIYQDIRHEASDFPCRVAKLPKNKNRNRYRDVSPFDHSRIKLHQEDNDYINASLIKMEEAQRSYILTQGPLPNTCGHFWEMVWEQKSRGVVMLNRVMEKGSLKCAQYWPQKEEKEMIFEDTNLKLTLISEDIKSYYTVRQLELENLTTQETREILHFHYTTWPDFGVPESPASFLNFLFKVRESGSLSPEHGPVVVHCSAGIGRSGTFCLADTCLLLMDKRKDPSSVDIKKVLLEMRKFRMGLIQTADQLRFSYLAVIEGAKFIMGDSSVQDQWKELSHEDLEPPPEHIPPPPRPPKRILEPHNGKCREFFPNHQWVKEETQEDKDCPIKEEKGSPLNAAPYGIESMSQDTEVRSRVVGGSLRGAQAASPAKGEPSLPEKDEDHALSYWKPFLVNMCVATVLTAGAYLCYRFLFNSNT

[4] = target: Serine/threonine-protein phosphatase 2A catalytic subunit alpha isoform (Bos taurus) (UniProt P67774); assay: Selectivity against protein phosphatase 2A
Sequence of Serine/threonine-protein phosphatase 2A catalytic subunit alpha isoform (Bos taurus) (P67774 whole entry, canonical isoform): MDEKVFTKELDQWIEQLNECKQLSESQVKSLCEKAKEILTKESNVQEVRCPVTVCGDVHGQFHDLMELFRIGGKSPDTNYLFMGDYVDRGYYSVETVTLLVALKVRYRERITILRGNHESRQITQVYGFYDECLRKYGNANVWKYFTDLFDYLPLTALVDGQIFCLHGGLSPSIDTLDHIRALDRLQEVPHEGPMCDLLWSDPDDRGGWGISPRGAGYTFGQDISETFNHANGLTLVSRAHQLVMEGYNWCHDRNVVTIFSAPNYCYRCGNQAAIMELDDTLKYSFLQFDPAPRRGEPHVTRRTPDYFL

Sequence of Receptor-type tyrosine-protein phosphatase alpha (Homo sapiens) (P18433 20-802 limits assumed): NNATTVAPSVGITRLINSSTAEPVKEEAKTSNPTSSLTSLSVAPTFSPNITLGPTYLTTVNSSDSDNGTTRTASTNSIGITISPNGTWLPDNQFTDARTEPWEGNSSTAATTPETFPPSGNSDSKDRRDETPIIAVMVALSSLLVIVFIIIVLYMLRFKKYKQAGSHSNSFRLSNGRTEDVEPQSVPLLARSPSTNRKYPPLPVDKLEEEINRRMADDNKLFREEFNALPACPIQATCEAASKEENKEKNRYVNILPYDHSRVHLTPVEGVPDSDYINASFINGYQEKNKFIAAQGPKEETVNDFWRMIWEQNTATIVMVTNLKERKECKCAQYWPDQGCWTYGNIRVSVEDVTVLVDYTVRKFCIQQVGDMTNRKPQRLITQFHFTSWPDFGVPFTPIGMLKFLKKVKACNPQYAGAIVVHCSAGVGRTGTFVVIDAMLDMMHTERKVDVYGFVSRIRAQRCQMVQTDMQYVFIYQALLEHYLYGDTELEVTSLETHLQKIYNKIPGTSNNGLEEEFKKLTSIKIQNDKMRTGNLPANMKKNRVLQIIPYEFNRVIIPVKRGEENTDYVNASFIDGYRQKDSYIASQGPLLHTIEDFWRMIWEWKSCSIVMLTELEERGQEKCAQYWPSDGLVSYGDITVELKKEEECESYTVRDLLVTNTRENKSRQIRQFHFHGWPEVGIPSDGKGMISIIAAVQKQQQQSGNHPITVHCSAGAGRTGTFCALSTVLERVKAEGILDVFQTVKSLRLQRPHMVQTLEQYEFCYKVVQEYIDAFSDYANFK

SMILES | Selectivity [1] [µM] | IC50 [2] [µM] | Selectivity [3] [µM] | Selectivity [4] [µM]
Cc1cc2ccc1[C@@H]1CC[C@H]([C@H](C)CCCC(C)C)[C@@]1(C)CCCC(C)CC[C@](C)(O)C2 (some centres undefined) | > 30 | > 30 | > 30 | > 30
C=CC[C@]1(O)CC/C(C)=C\CC[C@]2(C)[C@@H]([C@H](C)CCCC(C)C)CC[C@H]2c2ccc(cc2C(=O)O)C1 | > 30 | 9.3 | > 30 | > 30
C=CC[C@@]1(O)CC/C(C)=C\CC[C@]2(C)[C@@H]([C@H](C)CCCC(C)C)CC[C@H]2c2ccc(cc2C(=O)O)C1 | > 30 | 8.4 | > 30 | > 30
CC(=O)O[C@@]1(C)CC/C(C)=C\CC[C@]2(C)[C@@H]([C@H](C)CCCC(C)C)CC[C@H]2c2ccc(cc2C(C)O)C1 (some centres undefined) | > 30 | > 30 | > 30 | > 30
CC(=O)O[C@H]1CC/C(C)=C\CC[C@]2(C)[C@@H]([C@H](C)CCCC(C)C)CC[C@H]2c2ccc(cc2C=O)C1 | > 30 | 4.9 | > 30 | > 30
CC(=O)O[C@@]1(C)CC/C(C)=C\CC[C@]2(C)[C@@H]([C@H](C)CCCC(C)C)CC[C@H]2c2ccc(cc2C(C)=O)C1 | > 30 | > 30 | > 30 | > 30
CC(=O)CC(=O)O[C@H]1CC/C(C)=C\CC[C@]2(C)[C@@H]([C@H](C)CCCC(C)C)CC[C@H]2c2ccc(cc2C(=O)O)C1 | > 30 | 7.5 | > 30 | > 30
CC(C)CCC[C@@H](C)[C@H]1CC[C@H]2c3ccc(cc3CO)C[C@@H](O)CCC(C)CCC[C@]12C (some centres undefined) | > 30 | > 30 | > 30 | > 30
CC(=O)c1cc2ccc1[C@@H]1CC[C@H]([C@H](C)CCCC(C)C)[C@@]1(C)CC/C=C(/C)CC[C@](C)(O)C2 | > 30 | > 30 | > 30 | > 30
CC(=O)O[C@@]1(C)CCC(C)CCC[C@]2(C)[C@@H]([C@H](C)CCCC(C)C)CC[C@H]2c2ccc(cc2C)C1 (some centres undefined) | > 30 | 11 | > 30 | > 30
C/C1=C/CC[C@]2(C)[C@@H]([C@H](C)CCCC(C)C)CC[C@H]2c2ccc(cc2C=O)C[C@H](Oc2ccccc2)CC1 | > 30 | 3.5 | > 30 | > 30
COC(=O)c1cc2ccc1[C@@H]1CC[C@H]([C@H](C)CCCC(C)C)[C@@]1(C)CC/C=C(/C)CC[C@H](OC(C)=O)C2 | > 30 | > 30 | > 30 | > 30
CC(=O)O[C@H]1CC[C@](C)(C2CC[C@@]3(C)C(CC[C@@H]3[C@H](C)CCCC(C)C)[C@@H]2CC(=O)O)C(=O)O1 (some centres undefined) | – | 8.7 | – | –
CC(=O)O[C@H]1CC/C(C)=C\CC[C@]2(C)[C@@H]([C@H](C)CCCC(C)C)CC[C@H]2c2ccc(cc2C(=O)O)C1 | > 30 | 5.6 | > 30 | > 30
C/C1=C/CC[C@]2(C)[C@@H]([C@H](C)CCCC(C)C)CC[C@H]2c2ccc(cc2C(=O)O)CC(O)CC1 (some centres undefined) | > 30 | 7.9 | > 30 | > 30
COC(=O)c1cc2ccc1[C@@H]1CC[C@H]([C@H](C)CCCC(C)C)[C@@]1(C)CC/C=C(/C)CC[C@H](O)C2 | > 30 | > 30 | > 30 | > 30

The remaining lines, values ahead:

Selectivity [1] [µM] | IC50 [2] [µM] | Selectivity [3] [µM] | Selectivity [4] [µM] | SMILES
> 30 | 7.8 | > 30 | > 30 | CC(=O)O[C@H]1CCC(C)CCC[C@]2(C)[C@@H]([C@H](C)CCCC(C)C)CC[C@H]2c2ccc(cc2C(=O)O)C1 (some centres undefined)
> 30 | 3.4 | > 30 | 25 | CC(C)CCC[C@@H](C)[C@H]1CC[C@H]2c3ccc(cc3C(=O)O)CC(=O)CCC(C)CCC[C@]12C (some centres undefined)
> 30 | > 30 | > 30 | > 30 | CC(=O)O[C@@]1(C)CCC(C)CCC[C@]2(C)[C@@H]([C@H](C)CCCC(C)C)CC[C@H]2c2ccc(cc2CN2CCOCC2)C1 (some centres undefined)
> 30 | > 30 | > 30 | > 30 | C/C1=C/CC[C@]2(C)[C@@H]([C@H](C)CCCC(C)C)CC[C@H]2c2ccc(cc2CO)C[C@@H](O)CC1
> 30 | 11 | > 30 | > 30 | COC(=O)C(=O)O[C@H]1CC/C(C)=C\CC[C@]2(C)[C@@H]([C@H](C)CCCC(C)C)CC[C@H]2c2ccc(cc2C(=O)O)C1
> 30 | > 30 | > 30 | > 30 | COC(=O)c1cc2ccc1[C@@H]1CC[C@H]([C@H](C)CCCC(C)C)[C@@]1(C)CC/C=C(/C)CCC(=O)C2
> 30 | 29 | > 30 | > 30 | COCc1cc2ccc1[C@@H]1CC[C@H]([C@H](C)CCCC(C)C)[C@@]1(C)CC/C=C(/C)CC[C@](C)(OC(C)=O)C2
> 30 | > 30 | > 30 | > 30 | C/C1=C/CC[C@]2(C)[C@@H]([C@H](C)CCCC(C)C)CC[C@H]2c2ccc(cc2C(C)O)C[C@@](C)(O)CC1 (some centres undefined)
> 30 | 4.9 | > 30 | > 30 | CC(C)CCC[C@@H](C)[C@H]1CC[C@H]2c3ccc(cc3C(=O)O)CC(O)CCC(C)CCC[C@]12C (some centres undefined)
> 30 | 8.5 | > 30 | > 30 | C/C1=C/CC[C@]2(C)[C@@H]([C@H](C)CCCC(C)C)CC[C@H]2c2ccc(cc2C(=O)O)CC(=O)CC1
– | 6.5 | – | – | C/C1=C/CC[C@]2(C)[C@@H]([C@H](C)COC(=O)c3ccccc3)CC[C@H]2c2ccc(cc2C(=O)O)C[C@@H](O)CC1
> 30 | 11 | > 30 | > 30 | C/C1=C/CC[C@]2(C)[C@@H]([C@H](C)CCCC(C)C)CC[C@H]2c2ccc(cc2C=O)C[C@@H](O)CC1
> 30 | > 30 | > 30 | > 30 | CC(=O)O[C@H]1CC/C(C)=C\CC[C@]2(C)[C@@H]([C@H](C)CCCC(C)C)CC[C@H]2c2ccc(cc2CO)C1
> 30 | 7.1 | > 30 | > 30 | C/C1=C/CC[C@]2(C)[C@@H]([C@H](C)CCCC(C)C)CC[C@H]2c2ccc(cc2C(=O)O)C[C@H](Oc2ccccc2)CC1

Source: ChEMBL document CHEMBL1148233, “Design and synthesis of macrocyclic inhibitors of phosphatase cdc25B” (Bioorg Med Chem Lett, 2004)
